Earlier results on 1 substance are cited in paper PMC4226840, “An open-label study to determine the maximum tolerated dose of the multitargeted tyrosine kinase inhibitor CEP-11981 in patients with advanced cancer” (Investigational New Drugs, 2014).

In this series the test system is VEGFR-2. Set-up: method as in PMID 22148921. As to conditions: in vitro; cited from earlier work.

On to “11-(2-methylpropyl)-12,13-dihydro-2-methyl-8-(pyrimidin-2-ylamino)-4H-indazolo[5,4-a]pyrrolo[3,4-c]carbazol-4-one [CEP-11981]”, for which the IC50 is 4 nM.
